Measured values: patent publication US20250170237A1, “MURAMYL DIPEPTIDES AND PROCESS FOR PREPARATION THEREOF” (priority 2022, published 2025)

How the values were obtained:
HBsAg antigen = test: IgG titer with HBsAg antigen; type: in vivo, BALB/c mice
Procedure: (§1) Adjuvanticity of 15b was evaluated using antigens (OVA, HBsAg, DENV and JEV) in BALB/c mice model—From the immunized mice retro-orbital sampling or retro-orbital blood was collected on 14th and 28th day before sacrifice. Serum was separated by centrifugation at 12,500 rpm for 5 min. Transferred to a clean centrifuge tube and store at −80 until used.
(§2) The plates were coated with antigen in carbonate buffer. Plates were incubated at 4° C. overnight. They were then washed 3 times with PBS/Tween, and non-specific binding sites were blocked by adding 200 μl of blocking solution. Plates were incubated at room temperature for 1 h. Then 3 times wash is done, diluted standards and samples to desired concentrations in blocking solution were added to the plates. Incubate at 37° C. for 1 h or at 4° C. overnight. Plates were washed 3 times with PBS/Tween. Avidin-Horseradish Peroxidase (Av-HRP) was diluted and added. Incubated at room temperature for 30 min. Plates were washed 3 times with PBS/Tween. OPD Substrate was added and plates were incubated at room temperature (4-30 min) for colour development. The colour reaction was stopped by adding 50 μl of stop solution. Optical density (OD) was read at 492 nm.

OVA antigen = test: IgG titer with OVA antigen (indirect ELISA, immunized mice); type: in vivo, BALB/c mice
Procedure: as §1, §2

JEV antigen = test: IgG titer with JEV antigen; type: in vivo, BALB/c mice
Procedure: as §1, §2

CD4, CD8 [1] = test: Post JEV immunization Immunophenotyping; type: in vivo, BALB/c mice
Procedure: (§3) Staining for extracellular markers Staining was as per the manufacturer's protocol and run on a BD FACS Verse flow cytometer. Compensation was established using BD Biosciences compensation beads. Post-acquisition flow cytometry analysis was performed using FACS Suite software.

[2] = system: CD4, CD8, CD19, CD80, CD 28; test: Post Denv immunization Immunophenotyping; type: in vivo, BALB/c mice
Procedure: as §3

splenocytes = test: Post JEV immunization In vivo splenocyte proliferation assay; design: species or system BALB/c mice; conditions: UT = 100 (Table 15)
Procedure: Splenocytes were seeded into 96-well flat-bottom microtiter plates having 1×10^5 cells/well in […] complete RPMI-1640 medium. Plates were incubated at 37° C. with 5% CO2. After 48 h, […] MTT solution (5 mg/mL) was added to each well and left to incubate for next 4 h. Untransformed MTT ([…]) was removed from each well by pipetting. A total of […] of DMSO was added and the absorbance was evaluated in an ELISA reader at 630 nm on the multimode reader (Infinite 200 Pro, Switzerland) after 15 min

[3] = system: antigens (OVA, HBsAg, DENV and JEV); test: Serum anti-antigens (OVA, HBsAg, DENV and JEV) IgG titer, overall statements; type: in vivo, BALB/c mice; conditions: 15b against Ovalbumin, DEV, 15f against JEV
Procedure: as §1, §2

[4] = system: cytokines IFN, IL-1, IL-4, IL-6, IL-10; test: Post HBsAg immunization In vivo cytokine assay; design: species or system BALB/c mice
Procedure: (§4) ELISA was carried out by Bio Legend capture and detection antibodies. Briefly, 96-well plates were coated with capture antibody dissolved in coating buffer per well incubated overnight at 4° C. Wells were blocked with BSA for 1 h at RT. After blocking, 50 μL/well of serum was added and incubated for 3 h. After washing, Biotinylated secondary antibody was added along with enzyme. Plates were incubated for 1 h at RT. Then plates were washed and TMB substrate solution was added. The reaction was stopped after 30 min with a stopping solution. Absorbance was measured at 450 nm with a plate reader.

[5] = system: cytokines IL-1, IL-2, IL-4, IFN, IL-6, IL-10, IL-12, TNF; test: Post JEV immunization In vivo cytokine assay; design: species or system BALB/c mice
Procedure: as §4

CD4, CD8 [6] = test: Post HBsAg immunization Immunophenotyping; type: in vivo, BALB/c mice
Procedure: as §3

**Q.** Which “IgG titer with HBsAg antigen” value (HBsAg antigen; dose 1 μg) does the source give for `C[C@H](NC(=O)[C@@H](C)O[C@H]1[C@H](O)[C@@H](CO)OC(O)[C@@H]1NC(=O)C1CC1)C(=O)N[C@H](CCC(=O)O)C(N)=O` (stereo partly drawn) [15b, (4R)-5-amino-4-((2S)-2-((2R)-2-(((3R,4R, 5S, 6R)-3-(cyclopropanecarboxamido)-2,5-dihydroxy-6-(hydroxymethyl)tetrahydro-2H-pyran-4-yl)oxy)propanamido)propanamido)-5-oxopentanoic acid] here?
**A.** 51200-102400

**Q.** And the “IgG titer with HBsAg antigen” value (HBsAg antigen; dose 10 μg)?
**A.** 102400-240000

**Q.** And the “IgG titer with OVA antigen” value (OVA antigen; dose 1 μg)?
**A.** 1600-124000

**Q.** What about the “IgG titer with OVA antigen” value (OVA antigen; dose 10 μg) of the same molecule?
**A.** 204800-416000

**Q.** And the “IgG titer with OVA antigen” value (OVA antigen; dose 100 μg)?
**A.** 115000-320000

**Q.** What about the “IgG titer with JEV antigen” value (JEV antigen; dose 1 μg (Table 13)) of the same molecule?
**A.** 64000-128000

**Q.** What about the “IgG titer with JEV antigen” value (JEV antigen; dose 10 μg (Table 13)) of the same molecule?
**A.** 8000-16000

**Q.** What about the “IgG titer with JEV antigen” value (JEV antigen; dose 100 μg (Table 13)) of the same molecule?
**A.** 40000-80000

**Q.** What about the CD4 (CD4, CD8 [1]; dose 1 μG) of the same molecule?
**A.** 39.75-42.58

**Q.** And the CD8 (CD4, CD8 [1]; dose 1 μG)?
**A.** 14.56-19.54

**Q.** And the CD4 (CD4, CD8 [1]; dose 10 μG)?
**A.** 41.86-43.28

**Q.** And the CD8 (CD4, CD8 [1]; dose 10 μG)?
**A.** 14.78-17.25

**Q.** What about the CD4 ([2]; dose 1 μG) of the same molecule?
**A.** 36.26-41.8

**Q.** And the CD8 ([2]; dose 1 μG)?
**A.** 22.26-29.48

**Q.** What about the CD19 ([2]; dose 1 μG) of the same molecule?
**A.** 30.57-35.48

**Q.** And the “CD 28” value ([2]; dose 1 μG)?
**A.** 3.65-7.48

**Q.** What about the CD80 ([2]; dose 1 μG) of the same molecule?
**A.** 6.3-8.4

**Q.** And the CD4 ([2]; dose 10 μG)?
**A.** 38.74-43.84

**Q.** And the CD8 ([2]; dose 10 μG)?
**A.** 22.92-27.84

**Q.** And the CD19 ([2]; dose 10 μG)?
**A.** 36.19-41.28

**Q.** What about the “CD 28” value ([2]; dose 10 μG) of the same molecule?
**A.** 3.68-8.41

**Q.** What about the CD80 ([2]; dose 10 μG) of the same molecule?
**A.** 6.11-11.4

**Q.** And the “Splenocyte proliferation, Con A” value (splenocytes; dose 1 μg)?
**A.** 117.5-119.48

**Q.** What about the “Splenocyte proliferation, LPS” value (splenocytes; dose 1 μg) of the same molecule?
**A.** 118.2-120.01

**Q.** And the “Splenocyte proliferation, Normal” value (splenocytes; dose 1 μg)?
**A.** 118.6-120.48

**Q.** What about the “Splenocyte proliferation, Restimulated” value (splenocytes; dose 1 μg) of the same molecule?
**A.** 116.5-119.27

**Q.** And the “Splenocyte proliferation, Con A” value (splenocytes; dose 10 μg)?
**A.** 124.55-126.85

**Q.** What about the “Splenocyte proliferation, LPS” value (splenocytes; dose 10 μg) of the same molecule?
**A.** 104.6-109.57

**Q.** And the “Splenocyte proliferation, Normal” value (splenocytes; dose 10 μg)?
**A.** 111.38-115.78

**Q.** What about the “Splenocyte proliferation, Restimulated” value (splenocytes; dose 10 μg) of the same molecule?
**A.** 114.2-117.24

**Q.** And the “% Hemolysis” value (In vitro Hemolysis assay; erythrocytes (red blood cells))?
**A.** 2.302 ± 0.147%

**Q.** What about the “toxicity and hemolysis, conclusion in words” value (In vitro Hemolysis assay; even at higher concentrations) of the same molecule?
**A.** non-toxic and non-hemolytic

**Q.** And the “antibody titer, conclusion in words” value [3]?
**A.** significant antibody titer

**Q.** And the IFN ([4]; dose 1 μg)?
**A.** 80.6 pg/mL

**Q.** What about the IFN ([4]; dose 10 μg) of the same molecule?
**A.** 75.07 pg/mL

**Q.** What about the IFN ([4]; dose 100 μg) of the same molecule?
**A.** 68.6 pg/mL

**Q.** And the IFN ([5]; dose 1 μg (Table 14))?
**A.** 4.21 to 6.37 pg/mL

**Q.** What about the IL-2 ([5]; dose 1 μg (Table 14)) of the same molecule?
**A.** 13.77 to 19.81 pg/mL

**Q.** And the IL-6 ([5]; dose 1 μg (Table 14))?
**A.** 157.05 to 160.47 pg/mL

**Q.** And the IL-10 ([5]; dose 1 μg (Table 14))?
**A.** 48 to 51.02 pg/mL

**Q.** What about the IFN ([5]; dose 10 μg (Table 14)) of the same molecule?
**A.** 11.03 to 13.05 pg/mL

**Q.** And the IL-1 ([5]; dose 10 μg (Table 14))?
**A.** 61.9 to 67.25 pg/mL

**Q.** And the IL-2 ([5]; dose 10 μg (Table 14))?
**A.** 12.17 to 15.34 pg/mL

**Q.** And the IL-6 ([5]; dose 10 μg (Table 14))?
**A.** 233.3 to 245.27 pg/mL

**Q.** What about the IL-10 ([5]; dose 10 μg (Table 14)) of the same molecule?
**A.** 52.3 to 54.28 pg/mL

**Q.** What about the IFN ([5]; dose 100 μg (Table 14)) of the same molecule?
**A.** 3.06 to 6.48 pg/mL

**Q.** And the IL-1 ([5]; dose 100 μg (Table 14))?
**A.** 70.1 to 73.48 pg/mL

**Q.** What about the IL-2 ([5]; dose 100 μg (Table 14)) of the same molecule?
**A.** 23.97 to 27.45 pg/mL

**Q.** What about the IL-6 ([5]; dose 100 μg (Table 14)) of the same molecule?
**A.** 279.85 to 281.47 pg/mL

**Q.** And the IL-10 ([5]; dose 100 μg (Table 14))?
**A.** 57.5 to 59.48 pg/mL

**Q.** And the CD4 (CD4, CD8 [6]; dose 1 μG)?
**A.** 24.48-29.48

**Q.** And the CD8 (CD4, CD8 [6]; dose 1 μG)?
**A.** 12.71-19.48

**Q.** What about the CD4 (CD4, CD8 [6]; dose 10 μG) of the same molecule?
**A.** 25.47-29.48

**Q.** What about the CD8 (CD4, CD8 [6]; dose 10 μG) of the same molecule?
**A.** 12.67-18.54
